Experimental data published in PMC5638539, “A mannitol/sorbitol receptor stimulates dietary intake in Tribolium castaneum” (PLoS ONE, 2017).

How the values were obtained:
[1] = biological target: T1, TcGr20 (gustatory receptor 20) (Tribolium castaneum, UniProt D2A5I4); test: two-electrode voltage clamp in Xenopus oocytes expressing TcGr20, dose-response; assay type: cell-based
T1 construct: ORF of TcGr20 expressed in Xenopus oocytes
T1 sequence (D2A5I4 1-388): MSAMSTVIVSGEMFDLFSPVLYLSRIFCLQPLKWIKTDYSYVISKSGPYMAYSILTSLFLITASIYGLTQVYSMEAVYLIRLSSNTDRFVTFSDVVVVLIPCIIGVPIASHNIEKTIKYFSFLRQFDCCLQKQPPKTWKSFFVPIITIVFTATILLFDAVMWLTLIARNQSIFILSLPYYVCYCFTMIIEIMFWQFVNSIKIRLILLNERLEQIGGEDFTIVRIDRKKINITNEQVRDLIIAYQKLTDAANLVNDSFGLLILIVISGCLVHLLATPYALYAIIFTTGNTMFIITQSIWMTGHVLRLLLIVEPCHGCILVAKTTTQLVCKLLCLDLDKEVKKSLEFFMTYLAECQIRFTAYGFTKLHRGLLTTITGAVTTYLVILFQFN

[2] = biological target: T1, TcGr20 (gustatory receptor 20); test: two-electrode voltage clamp in Xenopus oocytes expressing TcGr20, dose-response; water-injected control negative; assay type: cell-based

SMILES | EC50 [1] [mM] | EC50 [2] [mM]
OC[C@@H](O)[C@@H](O)[C@H](O)[C@@H](O)CO [sorbitol] | 90.6 ± 10.4 | –
OC[C@@H](O)[C@@H](O)[C@H](O)[C@H](O)CO [mannitol] | – | 72.6 ± 9.1
